Molecules are shown by their SMILES.

For this assay, the target named is T1, human TGR5 (Homo sapiens, UniProt Q8TDU6).
T1 construct: expressed in transfected cells; host or cells: HEK293
T1 sequence (Q8TDU6 1-330): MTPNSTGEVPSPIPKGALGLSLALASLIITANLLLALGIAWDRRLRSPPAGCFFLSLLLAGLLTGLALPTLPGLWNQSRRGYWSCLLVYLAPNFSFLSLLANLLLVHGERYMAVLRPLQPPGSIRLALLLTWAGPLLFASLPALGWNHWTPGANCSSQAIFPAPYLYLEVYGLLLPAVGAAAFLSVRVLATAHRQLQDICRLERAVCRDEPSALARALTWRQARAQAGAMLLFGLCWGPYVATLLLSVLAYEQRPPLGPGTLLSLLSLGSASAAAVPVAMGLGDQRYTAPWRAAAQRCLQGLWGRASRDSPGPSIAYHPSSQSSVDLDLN
In words: Cell-based TGR5 assay (cAMP generation, HTRF). The settings on record: HEK293 cells stably transfected with human TGR5; cAMP by HTRF; 30 minutes at 37° C.; read-out: pEC50 Human TGR5 (converted). Summed up:
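First, compounds in 3-fold serial dilution were placed in HBSS with 10 mM HEPES pH 7.4 and 0.5 mM IBMX. Next, human TGR5-expressing HEK293 cells were added and incubated 30 min at 37° C. Finally, cAMP was detected by HTRF and pEC50 derived by logistic fitting.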
Regarding `FC(F)(F)COc1ccccc1-c1ccncc1C1(NCc2cc(Cl)ccc2Cl)CC1` [Compound I-8, N-[(2,5-dichlorophenyl)methyl]-1-{4-[2-(2,2,2-trifluoroethoxy)phenyl]pyridin-3-yl}cyclopropan-1-amine], the EC50 was 126 to 1000 nM. For the compound `CCc1ccccc1-c1ccncc1C1(NCc2cc(Cl)ccc2Cl)CC1` [Compound I-9, N-[(2,5-dichlorophenyl)methyl]-1-[4-(2-ethylphenyl)pyridin-3-yl]cyclopropan-1-amine], the EC50 is 126 to 1000 nM. Regarding `Clc1ccc(Cl)c(CNC2(c3cnccc3-c3ccccc3C3CC3)CC2)c1` [Compound I-10, 1-[4-(2-cyclopropylphenyl)pyridin-3-yl]-N-[(2,5-dichlorophenyl)methyl]cyclopropan-1-amine], the EC50 is 126 to 1000 nM. Take `FC(F)(F)Oc1ccccc1-c1ccncc1C1(NCc2cc(Cl)ccc2Cl)CC1` [Compound I-11]: the EC50 was 126 to 1000 nM.

For `COCc1ccccc1-c1ccncc1C1(NCc2cc(Cl)ccc2Cl)CC1` [Compound I-12], the EC50 is 126 to 1000 nM.

In the case of `CC(C)(C)OCc1ccccc1-c1ccncc1C1(NCc2cc(Cl)ccc2Cl)CC1` [Compound I-13, 1-(4-{2-[(tert-butoxy)methyl]phenyl}pyridin-3-yl)-N-[(2,5-dichlorophenyl)methyl]cyclopropan-1-amine], the EC50 is 126 to 1000 nM. Take `Clc1ccc(Cl)c(CNC2(c3cnccc3-c3ccccc3)CC2)c1` [Compound I-14, N-[(2,5-dichlorophenyl)methyl]-1-(4-phenylpyridin-3-yl)cyclopropan-1-amine]: the EC50 was 126 to 1000 nM. `CCOc1cc(F)c(F)cc1-c1ccncc1C1(NCc2cc(Cl)ccc2Cl)CC1` [Compound I-15, N-[(2,5-dichlorophenyl)methyl]-1-[4-(2-ethoxy-4,5-difluorophenyl)pyridin-3-yl]cyclopropan-1-amine]: the EC50 was 126 to 1000 nM. For the compound `Clc1ccc(Cl)c(CNC2(c3cnccc3-c3ccccc3Cl)CC2)c1` [Compound I-16, 1-[4-(2-chlorophenyl)pyridin-3-yl]-N-[(2,5-dichlorophenyl)methyl]cyclopropan-1-amine], the EC50 was 1260 to 10000 nM. With `Fc1ccccc1-c1ccncc1C1(NCc2cc(Cl)ccc2Cl)CC1` [Compound I-17, N-[(2,5-dichlorophenyl)methyl]-1-[4-(2-fluorophenyl)pyridin-3-yl]cyclopropan-1-amine], the EC50 was 1260 to 10000 nM.

For the compound `Fc1ccc(-c2ccncc2C2(NCc3cc(Cl)ccc3Cl)CC2)c(OC2CC2)c1` [Compound I-18, 1-[4-(2-cyclopropoxy-4-fluorophenyl)pyridin-3-yl]-N-[(2,5-dichlorophenyl)methyl]cyclopropan-1-amine], the EC50 is below 100 nM. `Clc1ccc(Cl)c(CNC2(c3cnccc3-c3ccccc3OC3COC3)CC2)c1` [Compound I-19, N-[(2,5-dichlorophenyl)methyl]-1-{4-[2-(oxetan-3-yloxy)phenyl]pyridin-3-yl}cyclopropan-1-amine]: the EC50 was below 100 nM.

Consider `CC(CO)Oc1ccccc1-c1ccncc1C1(NCc2cc(Cl)ccc2Cl)CC1` (stereo not shown) [Compound I-20, 2-{2-[3-(1-{[(2,5-dichlorophenyl)methyl]amino}cyclopropyl)pyridin-4-yl]phenoxy}propan-1-ol], for which the EC50 was 126 to 1000 nM. Consider `Clc1ccc(Cl)c(CNC2(c3cnccc3-c3ccccc3OC3CCOC3)CC2)c1` (stereo not shown) [Compound I-21, N-[(2,5-dichlorophenyl)methyl]-1-{4-[2-(oxolan-3-yloxy)phenyl]pyridin-3-yl}cyclopropan-1-amine], for which the EC50 was 126 to 1000 nM. Then `O[C@@H]1COC[C@H]1Oc1ccccc1-c1ccncc1C1(NCc2cc(Cl)ccc2Cl)CC1` [Compound I-22, (3R,4R)-4-{2-[3-(1-{[(2,5-dichlorophenyl)methyl]amino}cyclopropyl)pyridin-4-yl]phenoxy}oxolan-3-ol], with 1260 to 10000 nM; and `CSc1ccc(Cl)c(CNC2(c3cnccc3-c3ccccc3OC3CC3)CC2)c1` [Compound I-23, N-{[2-chloro-5-(methylsulfanyl)phenyl]methyl}-1-[4-(2-cyclopropoxyphenyl)pyridin-3-yl]cyclopropan-1-amine], with below 100 nM; and `Cc1ccc(C)c(CNC2(c3cnccc3-c3ccccc3OC3CC3)CC2)c1` [Compound I-24, 1-[4-(2-cyclopropoxyphenyl)pyridin-3-yl]-N-[(2,5-dimethylphenyl)methyl]cyclopropan-1-amine], with below 100 nM. As for `CSc1ccc(C)c(CNC2(c3cnccc3-c3ccccc3OC3CC3)CC2)n1` [Compound I-25, 1-[4-(2-cyclopropoxyphenyl)pyridin-3-yl]-N-{[3-methyl-6-(methylsulfanyl)pyridin-2-yl]methyl}cyclopropan-1-amine], the EC50 is below 100 nM. With `Clc1cccc(CNC2(c3cnccc3-c3ccccc3OC3CC3)CC2)c1Cl` [Compound I-26, 1-[4-(2-cyclopropoxyphenyl)pyridin-3-yl]-N-[(2,3-dichlorophenyl)methyl]cyclopropan-1-amine], the EC50 was 126 to 1000 nM. As for `Cc1nc(C)c(CNC2(c3cnccc3-c3ccccc3OC3CC3)CC2)nc1C` [Compound I-27, 1-[4-(2-cyclopropoxyphenyl)pyridin-3-yl]-N-[(trimethylpyrazin-2-yl)methyl]cyclopropan-1-amine], the EC50 is 126 to 1000 nM.

Turning to `Clc1ccc(CNC2(c3cnccc3-c3ccccc3OC3CC3)CC2)c(Cl)c1` [Compound I-28, 1-[4-(2-cyclopropoxyphenyl)pyridin-3-yl]-N-[(2,4-dichlorophenyl)methyl]cyclopropan-1-amine], the EC50 is 126 to 1000 nM. Regarding `COc1cc(C)c(CNC2(c3cnccc3-c3ccccc3OC3CC3)CC2)cc1C` [Compound I-29, 1-[4-(2-cyclopropoxyphenyl)pyridin-3-yl]-N-[(4-methoxy-2,5-dimethylphenyl)methyl]cyclopropan-1-amine], the EC50 was 126 to 1000 nM.

In the case of `FC(F)(F)c1ccc(Cl)cc1CNC1(c2cnccc2-c2ccccc2OC2CC2)CC1` [Compound I-30, N-{[5-chloro-2-(trifluoromethyl)phenyl]methyl}-1-[4-(2-cyclopropoxyphenyl)pyridin-3-yl]cyclopropan-1-amine], the EC50 is 126 to 1000 nM. For the compound `Clc1ccc(C2CC2)cc1CNC1(c2cnccc2-c2ccccc2OC2CC2)CC1` [Compound I-31, N-[(2-chloro-5-cyclopropylphenyl)methyl]-1-[4-(2-cyclopropoxyphenyl)pyridin-3-yl]cyclopropan-1-amine], the EC50 is below 100 nM. With `FC(F)(F)c1ccc(Cl)c(CNC2(c3cnccc3-c3ccccc3OC3CC3)CC2)c1` [Compound I-32, N-{[2-chloro-5-(trifluoromethyl)phenyl]methyl}-1-[4-(2-cyclopropoxyphenyl)pyridin-3-yl]cyclopropan-1-amine], the EC50 is below 100 nM. Consider `Cc1ccc(Cl)c(CNC2(c3cnccc3-c3ccccc3OC3CC3)CC2)c1` [Compound I-33, N-[(2-chloro-5-methylphenyl)methyl]-1-[4-(2-cyclopropoxyphenyl)pyridin-3-yl]cyclopropan-1-amine], for which the EC50 was below 100 nM. Then `Cc1cc(CNC2(c3cnccc3-c3ccccc3OC3CC3)CC2)c(Cl)cn1` [Compound I-34, N-[(5-chloro-2-methylpyridin-4-yl)methyl]-1-[4-(2-cyclopropoxyphenyl)pyridin-3-yl]cyclopropan-1-amine], with below 100 nM; and `Cc1ccc(Cl)c(CNC2(c3cnccc3-c3ccccc3OC3CC3)CC2)n1` [Compound I-35, N-[(3-chloro-6-methylpyridin-2-yl)methyl]-1-[4-(2-cyclopropoxyphenyl)pyridin-3-yl]cyclopropan-1-amine], with below 100 nM; and `COc1c(F)cc(CNC2(c3cnccc3-c3ccccc3OC3CC3)CC2)c(C)c1Cl` [Compound I-36, N-[(3-chloro-5-fluoro-4-methoxy-2-methylphenyl)methyl]-1-[4-(2-cyclopropoxyphenyl)pyridin-3-yl]cyclopropan-1-amine], with 126 to 1000 nM. As for `Cc1ccc(C(F)(F)F)cc1CNC1(c2cnccc2-c2ccccc2OC2CC2)CC1` [Compound I-37, 1-[4-(2-cyclopropoxyphenyl)pyridin-3-yl]-N-{[2-methyl-5-(trifluoromethyl)phenyl]methyl}cyclopropan-1-amine], the EC50 was below 100 nM. Regarding `COc1cc(C)c(CNC2(c3cnccc3-c3ccccc3OC3CC3)CC2)cc1C(C)C` [Compound I-38, 1-[4-(2-cyclopropoxyphenyl)pyridin-3-yl]-N-{[4-methoxy-2-methyl-5-(propan-2-yl)phenyl]methyl}cyclopropan-1-amine], the EC50 was 126 to 1000 nM.

For `CSc1cnc(CNC2(c3cnccc3-c3ccccc3OC3CC3)CC2)c(C)c1` [Compound I-39, 1-[4-(2-cyclopropoxyphenyl)pyridin-3-yl]-N-{[3-methyl-5-(methylsulfanyl)pyridin-2-yl]methyl}cyclopropan-1-amine], the EC50 was 126 to 1000 nM. Then `Cc1ccc(Cl)cc1CNC1(c2cnccc2-c2ccccc2OC2CC2)CC1` [Compound I-40, N-[(5-chloro-2-methylphenyl)methyl]-1-[4-(2-cyclopropoxyphenyl)pyridin-3-yl]cyclopropan-1-amine], with below 100 nM.

For `CSc1cnc(C)cc1CNC1(c2cnccc2-c2ccccc2OC2CC2)CC1` [Compound I-42, 1-[4-(2-cyclopropoxyphenyl)pyridin-3-yl]-N-{[2-methyl-5-(methylsulfanyl)pyridin-4-yl]methyl}cyclopropan-1-amine], the EC50 is below 100 nM.

The record behind these values is patent US12084472B2 (Ardelyx, Inc., priority 2015, dated 2024).
